Measured values as given in patent US20230339970A1, “CASEIN KINASE 1 DELTA MODULATORS” (priority 2020, published 2023).

Key:
human CSNK1D = target: T1, human CSNK1D (Homo sapiens, UniProt P48730); experiment: Whole Cell nBRET CSNK1D Binding Assay; settings: living CHO cells stably expressing human CSNK1D tagged with nanoluciferase; NanoBret tracer 130 nM; 2 hours at 37 C
T1 construct: expressed in transfected cells

[1] = target: T2, human recombinant GST cleaved CSNK1D (Homo sapiens, UniProt P48730); experiment: Purified Enzyme Assay (ADP-Glo CSNK1D Kinase Assay); type: biochemical; settings: 2 nM CSNK1D; peptide substrate 150 μM; ATP 20 μM; 45 minutes at room temperature
T2 construct: GST (cleaved yes); purchased University of Dundee clone DU 19064
Procedure, shortened: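 Percent activity derived from ADP-Glo quantification of ADP produced. Reactions: compound dose-response with human recombinant GST-cleaved CSNK1D, ATP and substrate peptide PLSRTL-pS-VASLPGL, incubated 45 min at room temperature.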

T1 sequence (P48730 whole entry): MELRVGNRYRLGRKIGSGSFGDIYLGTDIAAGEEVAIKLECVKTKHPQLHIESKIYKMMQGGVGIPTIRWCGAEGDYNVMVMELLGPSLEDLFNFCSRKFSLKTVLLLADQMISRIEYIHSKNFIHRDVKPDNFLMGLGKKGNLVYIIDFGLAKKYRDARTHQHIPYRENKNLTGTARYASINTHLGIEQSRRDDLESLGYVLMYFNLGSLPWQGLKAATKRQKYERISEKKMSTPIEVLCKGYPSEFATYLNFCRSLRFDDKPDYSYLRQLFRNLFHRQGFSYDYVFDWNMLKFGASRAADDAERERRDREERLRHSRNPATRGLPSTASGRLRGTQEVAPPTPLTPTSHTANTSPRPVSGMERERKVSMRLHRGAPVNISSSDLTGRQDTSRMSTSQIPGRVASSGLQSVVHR
T2 sequence (P48730 whole entry): as above

Compound | IC50 (human CSNK1D) | IC50 [1]
Fc1ccc(-c2nn3c(c2-c2ccnc4[nH]ncc24)C[C@@H](F)C3)cc1 [Example 228, 4-[(5R)-5-Fluoro-2-(4-fluorophenyl)-5,6-dihydro-4H-pyrrolo[1,2-b]pyrazol-3-yl]-1H-pyrazolo[3,4-b]pyridine] | 79 nM | 7 nM
Cc1cc(-c2c(-c3ccc(F)cn3)nn3c2OCC2(CC2)C3)c2c(Cl)n[nH]c2n1 [Example 464, 3′-(3-Chloro-6-methyl-1H-pyrazolo[3,4-b]pyridin-4-yl)-2′-(5-fluoropyridin-2-yl)-5′H,7′H-spiro[cyclopropane-1,6′-pyrazolo[5,1-b][1,3]oxazine]] | 11 nM | 5 nM
Cc1cc(-c2c(-c3ccc(F)cc3)nn3c2CO[C@H](C)C3)c2cn[nH]c2n1 (single isomer, unassigned) [Example 84, (*R)-2-(4-Fluorophenyl)-6-methyl-3-(6-methyl-1H-pyrazolo[3,4-b]pyridin-4-yl)-6,7-dihydro-4H-pyrazolo[5,1-c][1,4]oxazine] | 25 nM | 1 nM
Cc1cc(-c2c(-c3ccc(F)cc3)nn3c2[C@H]2C[C@H]2C3)c2cn[nH]c2n1 (single isomer, unassigned) [Example 277, (3b*S,4a*R)-2-(4-Fluorophenyl)-3-(6-methyl-1H-pyrazolo[3,4-b]pyridin-4-yl)-3b,4,4a,5-tetrahydrocyclopropa[3,4]pyrrolo[1,2-b]pyrazole] | 43 nM | 6 nM
c1csc(-c2nn3c(c2-c2ccnc4[nH]ncc24)CCCC3)n1 [Example 29, 2-(3-(1H-Pyrazolo[3,4-b]pyridin-4-yl)-4,5,6,7-tetrahydropyrazolo[1,5-a]pyridin-2-yl)thiazole] | 1200 nM | 35 nM
Cc1nc(-c2c(-c3ccc(F)cc3)nn3c2CCC3)c2cn[nH]c2n1 [Example 225, 4-[2-(4-Fluorophenyl)-5,6-dihydro-4H-pyrrolo[1,2-b]pyrazol-3-yl]-6-methyl-1H-pyrazolo[3,4-d]pyrimidine] | 88 nM | 8 nM
Cc1cc(-c2c(-c3ccc(F)cc3)nn3c2[C@H]2CC[C@@H]3C2)c2cn[nH]c2n1 (single isomer, unassigned) [Example 365, (4*S,7*R)-2-(4-Fluorophenyl)-3-(6-methyl-1H-pyrazolo[3,4-b]pyridin-4-yl)-4,5,6,7-tetrahydro-4,7-methanopyrazolo[1,5-a]pyridine] | 8 nM | 1 nM
Fc1ccc(-c2nn3c(c2-c2ccnc4[nH]ncc24)CO[C@@H](C(F)(F)F)C3)cc1 [Example 101, (R)-2-(4-Fluorophenyl)-3-(1H-pyrazolo[3,4-b]pyridin-4-yl)-6-(trifluoromethyl)-6,7-dihydro-4H-pyrazolo[5,1-c][1,4]oxazine] | 24 nM | 2 nM
CCn1ncc2cc(-c3c(-c4ccc(F)cc4)nn4c3COCC4C)cnc21 (stereo not drawn) [Example 370, 3-(1-Ethyl-1H-pyrazolo[3,4-b]pyridin-5-yl)-2-(4-fluorophenyl)-7-methyl-6,7-dihydro-4H-pyrazolo[5,1-c][1,4]oxazine] | > 10000 nM | 524 nM
Cc1nc(-c2c(-c3ccc(F)cc3)nn3c2OCC(F)(F)C3)c2cn[nH]c2n1 [Example 469, 6,6-Difluoro-2-(4-fluorophenyl)-3-(6-methyl-1H-pyrazolo[3,4-d]pyrimidin-4-yl)-5,7-dihydropyrazolo[5,1-b][1,3]oxazine] | 385 nM | 28 nM
[2H]C([2H])([2H])C1(C([2H])([2H])[2H])Cc2c(-c3c(F)cnc4[nH]ncc34)c(-c3ccc(F)cn3)nn2C1 [Example 243, 5-Fluoro-4-[2-(5-fluoro-2-pyridyl)-5,5-bis(methyl-d3)-4,6-dihydropyrrolo[1,2-b]pyrazol-3-yl]-1H-pyrazolo[3,4-b]pyridine] | 49 nM | 3 nM
Cc1cc(-c2c(-c3ccc(F)cc3)nn3c2OCC2(C3)CC2(F)F)c2cn[nH]c2n1 (single isomer, unassigned) [Example 474, *S-2,2-Difluoro-2′-(4-fluorophenyl)-3′-6-methyl-1H-pyrazolo[3,4-b]pyridin-4-yl)-5′H,7′H-spiro[cyclopropane-1,6′-pyrazolo[5,1-b][1,3]oxazine]] | 2 nM | 1 nM
Cc1nc2[nH]nc(C)c2c(-c2c(-c3ccc(F)cn3)nn3c2CC[C@H]2[C@@H]3C2(F)F)c1F (single isomer, unassigned) [Example 360, (5a*S,6a*R)-6,6-Difluoro-3-(5-fluoro-3,6-dimethyl-1H-pyrazolo[3,4-b]pyridin-4-yl)-2-(5-fluoropyridin-2-yl)-5,5a,6,6a-tetrahydro-4H-cyclopropa[e]pyrazolo[1,5-a]pyridine] | 70 nM | 7 nM
Fc1ccc(-c2nn3c(c2-c2ccnc4[nH]ncc24)CCCC3)nc1 [Example 35, 4-[2-(5-Fluoro-2-pyridyl)-4,5,6,7-tetrahydropyrazolo[1,5-a]pyridin-3-yl]-1H-pyrazolo[3,4-b]pyridine] | 374 nM | 11 nM
CC(=O)Nc1cc(-c2c(-c3ccc(F)cc3)nn3c2CC[C@H]2[C@@H]3C2(F)F)ccn1 (stereo in doubt) [Example 350, N-(4-((5a*S,6a*R)-6,6-Difluoro-2-(4-fluorophenyl)-5,5a,6,6a-tetrahydro-4H-cyclopropa[e]pyrazolo[1,5-a]pyridin-3-yl)pyridin-2-yl)acetamide] | 1 nM | 1 nM
C[C@@H]1C[C@H](C)n2nc(-c3ccc(F)cn3)c(-c3ccnc4[nH]ncc34)c2O1 (single isomer, unassigned) [Example 203, (5*R,7*S)-2-(5-Fluoro-2-pyridyl)-5,7-dimethyl-3-(1H-pyrazolo[3,4-b]pyridin-4-yl)-6,7-dihydro-5H-pyrazolo[5,1-b][1,3]oxazine] | 2890 nM | 34 nM
Fc1ccc(-c2nn3c(c2-c2ccnc4[nH]ncc24)CCC32CC2)nc1 [Example 249, 2-(5-Fluoro-2-pyridyl)-3-(1H-pyrazolo[3,4-b]pyridin-4-yl)spiro[4,5-dihydropyrrolo[1,2-b]pyrazole-6,1′-cyclopropane]] | 197 nM | 17 nM

More lines, now with the values ahead:

IC50 (human CSNK1D) | IC50 [1] | Compound
1400 nM | 26 nM | COc1cccc(-c2nn3c(c2-c2ccnc4[nH]ncc24)COC(C)(C)C3)n1 [Example 161, 2-(6-Methoxypyridin-2-yl)-6,6-dimethyl-3-(1H-pyrazolo[3,4-b]pyridin-4-yl)-6,7-dihydro-4H-pyrazolo[5,1-c][1,4]oxazine]
122 nM | 18 nM | CC1(C)Cn2nc(-c3ccc(F)cn3)c(-c3ccn4nccc4c3)c2CO1 [Example 140, 2-(5-Fluoropyridin-2-yl)-6,6-dimethyl-3-(pyrazolo[1,5-a]pyridin-5-yl)-6,7-dihydro-4H-pyrazolo[5,1-c][1,4]oxazine]
682 nM | 36 nM | Cc1nc2[nH]ncc2c(-c2c(-c3ccc(F)cn3)nn3c2CO[C@](C)(C(F)(F)F)C3)c1F (single isomer, unassigned) [Example 421, (*S)-3-(5-Fluoro-6-methyl-1H-pyrazolo[3,4-b]pyridin-4-yl)-2-(5-fluoropyridin-2-yl)-6-methyl-6-(trifluoromethyl)-6,7-dihydro-4H-pyrazolo[5,1-c][1,4]oxazine]
54 nM | 6 nM | Fc1ccc(-c2nn3c(c2-c2ccnc4[nH]ncc24)CCC(F)(COC(F)(F)F)C3)nc1 (single isomer, unassigned) [Example 316, (*S)-4-[6-Fluoro-2-(5-fluoro-2-pyridyl)-6-(rifluoromethoxymethyl)-5,7-dihydro-4H-pyrazolo[1,5-a]pyridin-3-yl]-1H-pyrazolo[3,4-b]pyridine]
1 nM | < 0.5 nM | CC1(C)COc2c(-c3ccnc4[nH]ncc34)c(-c3ccc(F)cc3)nn2C1 [Example 212, 2-(4-Fluorophenyl)-6,6-dimethyl-3-(1H-pyrazolo[3,4-b]pyridin-4-yl)-6,7-dihydro-5H-pyrazolo[5,1-b][1,3]oxazine]
95 nM | 5 nM | [2H]C([2H])([2H])C1(C([2H])([2H])[2H])Cn2nc(-c3ccc(F)cn3)c(-c3c(F)cnc4[nH]ncc34)c2CO1 [Example 399, 3-(5-Fluoro-1H-pyrazolo[3,4-b]pyridin-4-yl)-2-(5-fluoropyridin-2-yl)-6,6-bis(methyl-d3)-6,7-dihydro-4H-pyrazolo[5,1-c][1,4]oxazine]
19 nM | 2 nM | Cc1nc2[nH]ncc2c(-c2c(-c3ccc(F)cn3)nn3c2CC(C)(C)C3)c1F [Example 240, 5-Fluoro-4-[2-(5-fluoro-2-pyridyl)-5,5-dimethyl-4,6-dihydropyrrolo[1,2-b]pyrazol-3-yl]-6-methyl-1H-pyrazolo[3,4-b]pyridine]
43 nM | 5 nM | CC1(C)CCn2nc(-c3ccc(F)cc3)c(-c3ccnc4[nH]ncc34)c21 [Example 245, 4-[2-(4-Fluorophenyl)-4,4-dimethyl-5,6-dihydropyrrolo[1,2-b]pyrazol-3-yl]-1H-pyrazolo[3,4-b]pyridine]
7 nM | 2 nM | [2H]C([2H])([2H])C1(C([2H])([2H])[2H])CCc2c(-c3ccnc4[nH]ncc34)c(-c3ccc(F)cn3)nn2C1 [Example 283, 4-(2-(5-fluoropyridin-2-yl)-6,6-bis(methyl-d3)-4,5,6,7-tetrahydropyrazolo[1,5-a]pyridin-3-yl)-1H-pyrazolo[3,4-b]pyridine]
20 nM | 2 nM | CC(=O)Nc1cc(-c2c(-c3ccc(F)cn3)nn3c2CC[C@H]2[C@@H]3C2(F)F)ccn1 (stereo in doubt) [Example 351, N-(4-((5a*S,6a*R)-6,6-Difluoro-2-(5-fluoropyridin-2-yl)-5,5a,6,6a-tetrahydro-4H-cyclopropa[e]pyrazolo[1,5-a]pyridin-3-yl)pyridin-2-yl)acetamide]
